Columns and labels:
Myzus persicae = experiment: dual-choice insect feeding assay on tomato leaf disks, aphids; assay type: in vivo; details: for effect on feeding at the lowest concentration used: lowest concentration used (113 μg gFW^−1 for cinnamolide)
Procedure: (§1) The insects used in this study were the silverleaf whitefly Bemisia tabaci (genotype B) and the green peach aphid Myzus persicae. Whiteflies were reared on tomato (Moneymaker cultivar) in a greenhouse at 26° C., at 60% relative humidity with a photoperiod of 16 h light and 8 h dark. To perform the assays, adult flies of both genders were collected from leaves with an aspirator. They were cold-anesthetized at 7° C. in a 3 cm diameter plastic cylinder covered with Parafilm® for 5 min, before being released into the Petri dish at the start of the dual-choice assay, to ensure they would not fly out before the dishes were sealed. Apterous (without wings) aphid adults were collected from Chinese cabbage (Brassica rapa L. subspecies pekinensis), on which they had been reared at room temperature in ambient light. They were collected in 2 ml test tubes and starved for about 30 min before inoculating them in the dishes. In the dual-choice assays, insects were presented with circular tomato leaf areas coated with either 50% ethanol in water (control) or a solution of cinnamolide in 50% ethanol in water (treatment; two disks with each solution). Cinnamolide was firstly dissolved in 96% ethanol at a concentration of 2 mg mL^−1; subsequently an equal volume of water was added bringing the maximum concentration used to 1 mg mL^−1. Further dilutions were performed adding directly one volume of 50% ethanol in water to one volume of the previous concentration. The three concentrations used were therefore 1 mg mL^−1, 500 μg mL^−1 and 250 μg mL^−1. […] The assays were carried on for either 18 or 24 h and the feeding insects counted at 30 min, 1 h, 2 h, 6 h, and 18 h for whiteflies and at 30 min, 1 h, 2 h, 6 h, and 24 h for aphids. […] To convert data from the concentration in ethanol, expressed as mg mL^−1, into concentration expressed as mg gFW^−1, the value must be multiplied by 15 (the volume in μL applied on each disk) and divided by 0.034 (mass of leaf disk in grams). […]

Bemisia tabaci = experiment: dual-choice insect feeding assay on tomato leaf disks, whiteflies; assay type: in vivo
Procedure: as §1, with “dishes.” for “dishes. In the dual-choice assays, insects were presented with circular tomato leaf areas coated with either 50% ethanol in water (control) or a solution of cinnamolide in 50% ethanol in water (treatment; two disks with each solution). Cinnamolide was firstly dissolved in 96% ethanol at a concentration of 2 mg mL^−1; subsequently an equal volume of water was added bringing the maximum concentration used to 1 mg mL^−1. Further dilutions were performed adding directly one volume of 50% ethanol in water to one volume of the previous concentration. The three concentrations used were therefore 1 mg mL^−1, 500 μg mL^−1 and 250 μg mL^−1.”

[1] = 450, 225 and 113 μg gFW^−1, 6 h

Compound	Antifeedant Index (Al %), dose response (Myzus persicae; [1])	effect on feeding at the lowest concentration used (Myzus persicae)	Antifeedant Index (Al %), dose response (Bemisia tabaci; [1])	attractant (phagostimulant) effect at the lowest concentration used (Bemisia tabaci; lowest concentration used (113 μg gFW^−1))
CC1(C)CCC[C@]2(C)[C@H]3COC(=O)C3=CC[C@@H]12 [cinnamolide]	increases with the increasing concentrations applied	attractant (phagostimulant) effect	increases with the increasing concentrations applied	not seen
CC1(C)CCC[C@]2(C)[C@@H](C=O)C(C=O)=CC[C@@H]12 [polygodial, reference compound]		attractant (phagostimulant) effect		

— patent publication US20140259223A1, “METHODS FOR PRODUCING CINNAMOLIDE AND/OR DRIMENDIOL” (Keygene N.V., priority 2011, published 2014)
